The values below come from paper PMC6376162, “HEXIM1 Peptide Exhibits Antimicrobial Activity Against Antibiotic Resistant Bacteria Through Guidance of Cell Penetrating Peptide” (Frontiers in Microbiology, 2019).

In data set [1] the test system is HaCaT human keratinocyte cell line. Briefly: Viability assay for mammalian cells (CellTiter-Glo). It is filed as cell-based. To be noted: overnight; for cytotoxicity against HaCat cells: 30 μM; for toxicity against HaCaT cells at the highest concentration: 100 μM. On the procedure:
(§1) Bacterial strains were either purchased from American Type Culture Collection (ATCC, United States) or provided by National University Hospital, Singapore. Prior to assays, all bacteria, except for Enterococcus faecalis, were grown overnight to stationary phase at 37°C in Luria Bertani (LB) broth (Novagen, Germany). The overnight cultures were 10-fold diluted in fresh cation-adjusted Mueller Hinton II broth (MHBII) (Becton Dickinson, United States) and grown for additional few hours at 37°C to obtain mid-log phase culture. E. faecalis strains were grown in M17 broth (Becton Dickenson, United States) for both overnight and mid-log phase culturing. Human keratinocyte cell line, HaCaT, was purchased from Creative Bioarray (United States) and cultured in Dulbecco’s Modified Eagle’s medium with 4.5 g/L glucose, 2 mM L-glutamine, and 10% fetal bovine serum.
HaCat cells (1 × 10^5 cells mL^−1) were seeded in a 96-well clear-bottomed white plate (Corning) in Dulbecco’s Modified Eagle’s medium with 4.5 g/L glucose, 2 mM L-glutamine, and 10% fetal bovine serum and incubated overnight at 37°C. On the following day, cells were treated with the indicated peptides at serial-diluted concentrations and incubated overnight. CellTiter-Glo reagent (Promega) was utilized to determine the cell viability based on the manufacturer’s instructions.
(ATP-based viability assays read luminescence as a measure of living cells.)

A further data set has as its system P. aeruginosa 544. It counts as cell-based, Pseudomonas aeruginosa. To be noted: 544, 20 h. On the procedure: as §1
(§2) Minimum inhibition concentrations (MICs) were determined by using broth microdilution method in a 96-well microtiter plate according to guidelines of the Clinical and Laboratory Standards Institute ([CLSI, 2012]). Briefly, mid-log phase cultures were diluted with MHBII and added to wells containing serially diluted peptides to give final cell concentration of 5 × 10^5 cells ml^−1. Peptides were prepared in twofold serial dilution series to give a final concentration range from 2 to 128 μM. Cecropin P1 (CECP1) and Cap11-1-18m^2 (CapM2) treated cells were used as positive controls, while untreated cells were used as a negative control.
(§3) To further assess the potency of peptides, wells with no visible growth from MIC tests were subsequently plated on LB agar plates and incubated overnight at 37°C. […] Both MIC and MBC assays were conducted on three to five separate occasions and if results were within one doubling dilutions of each other, the highest reading was recorded for analysis.

A further data set relates to E. faecalis VRE. It is filed as cell-based, Enterococcus faecalis. To be noted: 20 h. On the procedure: as §1, §2, §3
A further data set concerns Escherichia coli 25922. It counts as cell-based. Conditions: 25922, 20 h. On the procedure:
as §1, §2, §3

Data set [2] has as its system Staphylococcus aureus 29213. It is filed as cell-based. To be noted: 29213, 20 h. On the procedure:
as §1, §2, §3

In data set [3] the test system is Pseudomonas aeruginosa 27853. It is filed as cell-based. To be noted: 27853, 20 h. On the procedure: as §1, §2, §3
For a further data set, the system named is Escherichia coli BAA2523. It is filed as cell-based. To be noted: BAA2523, 20 h. On the procedure:
as §1, §2, §3

For data set [4], the system named is panel of antibiotic sensitive and resistant bacteria. It counts as cell-based. Conditions: 20 h. On the procedure: as §1, §2, §3
Data set [5] deals with Enterococcus faecalis SEN. It is filed as cell-based. Conditions: 20 h. On the procedure:
as §1, §2, §3

Another data set has as its system S. aureus 43300. It is filed as cell-based, Staphylococcus aureus. Conditions: 43300, 20 h. On the procedure:
as §1, §2, §3

Converted amounts (≈) assume the structure as drawn. Residues, ends and D or L forms follow the SMILES beside them.

As for `CC[C@H](C)[C@H](NC(=O)[C@H](CCCCN)NC(=O)[C@@H](NC(=O)[C@H](CCC(N)=O)NC(=O)[C@@H](N)CCCNC(=N)N)[C@@H](C)CC)C(=O)N[C@@H](Cc1c[nH]c2ccccc12)C(=O)N[C@@H](Cc1ccccc1)C(=O)N[C@@H](CCC(N)=O)C(=O)N[C@@H](CC(N)=O)C(=O)N[C@@H](CCCNC(=N)N)C(=O)N[C@@H](CCCNC(=N)N)C(=O)N[C@@H](Cc1c[nH]c2ccccc12)C(=O)NCC(=O)NCC(=O)N[C@@H](CCC(N)=O)C(=O)N[C@@H](CC(C)C)C(=O)NCC(=O)N[C@@H](CCCNC(=N)N)C(=O)N[C@@H](CCCNC(=N)N)C(=O)N[C@@H](CCCNC(=N)N)C(=O)N[C@@H](Cc1c[nH]cn1)C(=O)N[C@@H](CCCNC(=N)N)C(=O)N[C@@H](CCCNC(=N)N)C(=O)N[C@@H](CCCNC(=N)N)C(=O)N1CCC[C@H]1C(=O)N[C@@H](CO)C(=O)N[C@@H](CCCNC(=N)N)C(=O)N[C@@H](CCCNC(=N)N)C(=O)N[C@@H](CCCNC(=N)N)C(=O)N[C@@H](CCCNC(=N)N)C(=O)N[C@@H](Cc1c[nH]cn1)C(=O)N[C@@H](Cc1c[nH]c2ccccc12)C(=O)O` [Pen-RRR] (H-RQIKIWFQNRRWGGQLGRRRHRRRPSRRRRHW-OH), in [1], the “cytotoxicity against HaCat cells” value is given as “little or no cytotoxicity” and the “toxicity against HaCaT cells at the highest concentration” value is listed as “toxic activity”.
Turning to `CC(C)C[C@H](NC(=O)[C@@H](N)CCC(N)=O)C(=O)NCC(=O)N[C@@H](CCCNC(=N)N)C(=O)N[C@@H](CCCNC(=N)N)C(=O)N[C@@H](CCCNC(=N)N)C(=O)N[C@@H](Cc1c[nH]cn1)C(=O)N[C@@H](CCCNC(=N)N)C(=O)N[C@@H](CCCNC(=N)N)C(=O)N[C@@H](CCCNC(=N)N)C(=O)N1CCC[C@H]1C(=O)N[C@@H](CO)C(=O)N[C@@H](CCCNC(=N)N)C(=O)N[C@@H](CCCNC(=N)N)C(=O)N[C@@H](CCCNC(=N)N)C(=O)N[C@@H](CCCNC(=N)N)C(=O)N[C@@H](Cc1c[nH]cn1)C(=O)N[C@@H](Cc1c[nH]c2ccccc12)C(=O)O` [BR-RRR12] (H-QLGRRRHRRRPSRRRRHW-OH), the MBC is above 128 µM against P. aeruginosa 544; above 128 µM in the data set on E. faecalis VRE; 64 µM (≈ 161 µg/mL) in the data set on Escherichia coli 25922; above 128 µM in [2]; above 128 µM in [3]; above 128 µM in the data set on Escherichia coli BAA2523. This molecule also displayed an MBC in data set [5] above 128 µM. In addition, the MIC is 16 µM (≈ 40.4 µg/mL) in the data set on E. faecalis VRE; 64 µM (≈ 161 µg/mL) in the data set on Escherichia coli 25922; 32 µM (≈ 80.7 µg/mL) in data set [2]; above 128 µM in data set [3]; above 128 µM in the data set on Escherichia coli BAA2523; 32 µM (≈ 80.7 µg/mL) in [5]. Further, the MIC in the data set with S. aureus 43300 amounted to 16 µM (≈ 40.4 µg/mL). Moreover, the “MICs (range over inhibited strains)” value in data set [4] lay in the range of 16 to 64 µM.
For `CC[C@H](C)[C@H](NC(=O)[C@H](CC(C)C)NC(=O)[C@H](CCCCN)NC(=O)[C@H](CC(C)C)NC(=O)[C@H](CC(C)C)NC(=O)[C@H](CCCCN)NC(=O)[C@H](CCCNC(=N)N)NC(=O)[C@H](Cc1ccccc1)NC(=O)[C@H](CC(C)C)NC(=O)[C@H](CCCCN)NC(=O)[C@H](CCCNC(=N)N)NC(=O)[C@H](CC(C)C)NC(=O)[C@@H](N)CCCCN)C(=O)N[C@@H](CCCNC(=N)N)C(=O)N[C@@H](CCCCN)C(=O)N[C@@H](CC(C)C)C(=O)N[C@@H](CC(C)C)C(=O)N[C@@H](CCCNC(=N)N)C(=O)O` [CapM2, Cap11-1-18m^2, reference compound] (H-KLRKLFRKLLKLIRKLLR-OH), the MBC worked out at 32 µM (≈ 74.8 µg/mL) with P. aeruginosa 544; 16 µM (≈ 37.4 µg/mL) with E. faecalis VRE; 32 µM (≈ 74.8 µg/mL) in the data set on Escherichia coli 25922; 32 µM (≈ 74.8 µg/mL) in [2]; 32 µM (≈ 74.8 µg/mL) in data set [3]; 64 µM (≈ 150 µg/mL) with Escherichia coli BAA2523. Further, the MBC (in [5]; with S. aureus 43300) was 16 µM (≈ 37.4 µg/mL) each time. The MIC stood at 16 µM (≈ 37.4 µg/mL) in the data set with P. aeruginosa 544; 16 µM (≈ 37.4 µg/mL) against E. faecalis VRE; 16 µM (≈ 37.4 µg/mL) against Escherichia coli 25922; 16 µM (≈ 37.4 µg/mL) in [2]; 16 µM (≈ 37.4 µg/mL) in data set [3]; 32 µM (≈ 74.8 µg/mL) against Escherichia coli BAA2523. The MIC (in data set [5]; with S. aureus 43300) was 16 µM (≈ 37.4 µg/mL) in each case.
Consider `CC[C@H](C)[C@H](NC(=O)[C@H](CCCCN)NC(=O)[C@@H](NC(=O)[C@H](CCC(N)=O)NC(=O)[C@@H](N)CCCNC(=N)N)[C@@H](C)CC)C(=O)N[C@@H](Cc1c[nH]c2ccccc12)C(=O)N[C@@H](Cc1ccccc1)C(=O)N[C@@H](CCC(N)=O)C(=O)N[C@@H](CC(N)=O)C(=O)N[C@@H](CCCNC(=N)N)C(=O)N[C@@H](CCCNC(=N)N)C(=O)N[C@@H](Cc1c[nH]c2ccccc12)C(=O)NCC(=O)NCC(=O)N[C@@H](CCC(N)=O)C(=O)N[C@@H](CC(C)C)C(=O)NCC(=O)N[C@@H](CCCCN)C(=O)N[C@@H](CCCCN)C(=O)N[C@@H](CCCCN)C(=O)N[C@@H](Cc1c[nH]cn1)C(=O)N[C@@H](CCCNC(=N)N)C(=O)N[C@@H](CCCNC(=N)N)C(=O)N[C@@H](CCCNC(=N)N)C(=O)N1CCC[C@H]1C(=O)N[C@@H](CO)C(=O)N[C@@H](CCCCN)C(=O)N[C@@H](CCCCN)C(=O)N[C@@H](CCCCN)C(=O)N[C@@H](CCCNC(=N)N)C(=O)N[C@@H](Cc1c[nH]cn1)C(=O)N[C@@H](Cc1c[nH]c2ccccc12)C(=O)O` [Pen-BR] (H-RQIKIWFQNRRWGGQLGKKKHRRRPSKKKRHW-OH), for which, in data set [1], the “cytotoxicity against HaCat cells” value is “little or no cytotoxicity” and the “toxicity against HaCaT cells at the highest concentration” value is listed as “toxic activity”. In addition, the “effect on HaCaT cells under lower concentrations” value in [1] (below 100 μM (10, 30, 50 μM)) is given as “did not cause any significant effects”.
With `CC[C@H](C)[C@H](NC(=O)CNC(=O)[C@H](CCC(=O)O)NC(=O)[C@H](CO)NC(=O)[C@@H](NC(=O)[C@H](CCCNC(=N)N)NC(=O)[C@H](CCCCN)NC(=O)[C@H](CCCCN)NC(=O)[C@H](C)NC(=O)[C@H](CO)NC(=O)[C@H](CC(N)=O)NC(=O)[C@H](CCC(=O)O)NC(=O)[C@H](CC(C)C)NC(=O)[C@H](CCCCN)NC(=O)[C@H](CCCCN)NC(=O)[C@H](C)NC(=O)[C@@H](NC(=O)[C@H](CCCCN)NC(=O)[C@H](CO)NC(=O)[C@H](CC(C)C)NC(=O)[C@H](Cc1c[nH]c2ccccc12)NC(=O)[C@@H](N)CO)[C@@H](C)O)[C@@H](C)CC)C(=O)N[C@@H](C)C(=O)N[C@H](C(=O)N[C@@H](C)C(=O)N[C@H](C(=O)N[C@@H](CCC(N)=O)C(=O)NCC(=O)NCC(=O)N1CCC[C@H]1C(=O)N[C@@H](CCCNC(=N)N)C(=O)O)[C@@H](C)CC)[C@@H](C)CC` [CECP1, Cecropin P1, reference compound] (H-SWLSKTAKKLENSAKKRISEGIAIAIQGGPR-OH), the MBC against P. aeruginosa 544 was 32 µM (≈ 107 µg/mL); with E. faecalis VRE, above 128 µM; with Escherichia coli 25922, 4 µM (≈ 13.4 µg/mL); in [2], above 128 µM; in [3], 32 µM (≈ 107 µg/mL); in the data set on Escherichia coli BAA2523, 64 µM (≈ 214 µg/mL). Also, the MBC (in data set [5]; against S. aureus 43300) was above 128 µM in each case. Further, the MIC is 16 µM (≈ 53.4 µg/mL) against P. aeruginosa 544; above 128 µM in the data set on E. faecalis VRE; 4 µM (≈ 13.4 µg/mL) against Escherichia coli 25922; above 128 µM in data set [2]; 16 µM (≈ 53.4 µg/mL) in [3]; 64 µM (≈ 214 µg/mL) in the data set on Escherichia coli BAA2523. Besides, the MIC (in [5]; against S. aureus 43300) was above 128 µM in each case.

The MBC is the lowest tested concentration that kills the bacteria rather than only halting them. Lower therefore signals more potent killing. By MIC is commonly meant the smallest concentration in the dilution series that meets the test's criterion for growth inhibition. Read a low MIC as a more susceptible organism.
